Reference: publication PMC6405172, “In vitro activity and mode of action of phenolic compounds on Leishmania donovani” (PLoS Neglected Tropical Diseases, 2019)

Columns and labels:
[1] = tested on: Leishmania donovani promastigotes; assay: Promastigote viability assay (MTT); format: cell-based; details: for IC50: Leishmania donovani, MTT, 72 hours at 25°C, read-out: Promastigotes IC50 (μM) ± SD; for Selectivity Index (CC50/IC50), promastigotes: CC50 Raw 264.7 / IC50 promastigotes
Method: The MTT assay was done as previously described. Briefly, promastigotes (2 x 10^5 cells) were cultured in freshly prepared M-199 medium supplemented with 10% heat inactivated fetal bovine serum in the presence or absence of varying concentrations of the phenolic compounds (0–50 μg/mL) for 72 hours at 25°C. Amphotericin B (0–50 μg/mL) and deferoxamine (0–50 μg/mL) were used as positive controls. After incubation, 5 mg/mL MTT solution was added to the promastigotes in each well and incubated for 3 hours at 25°C. In this assay, the yellow tetrazolium MTT dye was reduced to insoluble formazan crystals (purple color) in living cells using NADH as their reducing agent. Formazan crystals formed after incubation were solubilized with acidified isopropanol and incubated at 37°C for 30 min. The change in color from yellow to purple was read at an absorbance of 570 nm using Thermo Scientific Varioskan LUX. The cell viability and IC50 were determined from the concentration response curve generated using GraphPad Prism 6.0 Software.

[2] = tested on: L. donovani promastigotes; assay: Cell cycle analysis by flow cytometry; format: cell-based, Leishmania donovani; details: 24 hours; for increase in G0/G1 cells / decrease in the number of parasites at the M phase: 2x IC50 (amphotericin B 1/2 IC50); for increase in G0/G1 cells: versus untreated 34.6%
Method: Cell cycle analysis of treated and untreated L. donovani promastigotes was performed using flow cytometry. […] The fixed cells were harvested, resuspended in 1x PBS for 1 min and washed twice in 1x PBS. Staining solution (Guava cell cycle reagent) was added and incubated at room temperature for 30 min. The percentage cell count in G0, G1, S, G2 and M phases of the cell cycle were determined with BD LSR Fortessa™^. X-20 analyzer (BD Biosciences) and data was analyzed with FlowJo software.

[3] = tested on: Leishmania donovani promastigotes; assay: Iron content analysis by atomic absorption spectroscopy; format: cell-based; details: 24 hours; 4x IC50 (amphotericin B IC50)
Method: The parasites were then washed twice with 1x PBS and resuspended in 50 μl deionized water. An aliquot (10 μl) of the parasite suspension was used for protein content determination as described by. The remaining parasite sample (40 μl) was digested with HNO3 for 1 hour at 80°C and overnight at 20°C. Cell digestions were stopped by the addition of 30% H2O2 and topped up to 1.5 ml with deionized water. Iron content in digested samples, spent and unused media were measured by atomic absorption spectroscopy using a Perkin Elmer Analyst 300 spectrometer.

[4] = tested on: Leishmania iron transporter 1 (LIT1); assay: RT-qPCR mRNA expression of LIT1; format: cell-based, Leishmania donovani; details: promastigotes, 24 hours; for LIT1 Relative quantity: Fig 7A
Method: (§1) Promastigotes (1 x 10^7 cells) were separately treated with rosmarinic acid, apigenin, amphotericin B and deferoxamine, harvested after 24 hours incubation at 25°C. The parasites were then pelleted by centrifugation at 239 × g for 10 min and the pellet was re-suspended in 1 mL TRIzol. Samples were incubated overnight at -80°C and total RNA was extracted as described by the manufacturer’s protocol using Quick-RNA MiniPrep Plus (Zymo Research, USA). Purity of total RNA was determined to be approximately 2.0 using a Nanodrop. The oligonucleotide primers for the amplification of the iron dependent enzymes—ribonucleotide reductase (RNR) (3’[…] and 5’CAACAACTTCTGCGCATCG), iron superoxide dismutase A (FeSOD) (3’[…] and 5’[…]) and Leishmania iron transporter 1 (LIT1) (3’[…] and 5’ […]) were designed using sequences of Leishmania reference genome from tritrypdb.org (http://tritrypdb.org/tritrypdb/) and Primer 3 software. The oligonucleotide primers used in amplifying the housekeeping gene Histone 2A were (3’ […] and 5’[…]). The RT-qPCR reaction was conducted as described by manufacturer’s protocol with final concentrations of oligonucleotide primers as 0.4 μM, 1x Luna Universal One-Step Reaction mix, 1x Luna WarmStart RT Enzyme Mix and template RNA ≤ 1 μg. All the RT-PCR products were standardized with respect to the endogenous control, Histone 2A. The levels of the mRNA transcripts were obtained using the QuantStudio 5 Real-Time PCR System (Applied Biosystems). The data represent three independent experiments done in triplicate and a fold change in gene expression of >2 was considered significant.

[5] = tested on: ribonucleotide reductase (RNR); assay: RT-qPCR mRNA expression of RNR; format: cell-based, Leishmania donovani; details: promastigotes, 24 hours; for RNR Relative quantity: Fig 7C
Method: as §1

[6] = tested on: Leishmania donovani intracellular amastigotes; assay: Infectivity index of infected macrophages (DAPI, fluorescence microscopy); format: cell-based; details: 48 hours; for infectivity values (infectivity index): concentration not given
Method: Amastigote cultures were prepared as reported by Jain and colleagues. Briefly, Raw 264.7 cells (4 x 10^7 cells) were seeded in 4 chamber slides and 1 x 10^7 cells in 96 well plates and incubated for 24 hours at 37°C in 5% CO2. The RAW 264.7 cells were infected with metacyclic promastigotes (1 x 10^8 cells) at an infection ratio of 1:10 macrophage: parasites and incubated for 24 hours at 37°C in 5% CO2. The overlying medium was removed, and the monolayer intracellular amastigotes were carefully washed four times with serum free M199 to remove free parasites. Freshly prepared M199 containing 10% FBS and the test compounds at concentrations ranging from 0–50 μg/mL were added to the infected cells and incubated for 48 hours at 37°C in 5% CO2. Triplicate incubations were performed in all the experiments. The chamber slides were washed thrice after incubation with M199 without FBS. The slides were then fixed in absolute methanol for 30 sec, rehydrated in 1x PBS for 5 min and stained with DAPI for 15 min. The slides were viewed by fluorescence microscopy and the number of infected macrophages counted using ImageJ Software to determine the infectivity index and IC50 values for amastigotes.

C[C@@H]1[C@H](O)[C@@H](C)/C=C/C=C/C=C/C=C/C=C/C=C/C=C/[C@H](O[C@@H]2O[C@H](C)[C@@H](O)[C@H](N)[C@@H]2O)C[C@@H]2O[C@](O)(C[C@@H](O)C[C@@H](O)[C@H](O)CC[C@@H](O)C[C@@H](O)CC(=O)O[C@H]1C)C[C@H](O)[C@H]2C(=O)O [Amphotericin B, reference compound]
IC50 [1]: 6.56 ± 0.06 µM | increase in G0/G1 cells [2]: 13.1% | change in the number of parasites at the S phase ([2]; versus untreated): significant increase | concentration of iron in the spent media [3]: 0.07 mg/L | intracellular iron levels in promastigotes [3]: 0.15 mg/L | LIT1 mRNA expression versus untreated [4]: 5 fold | LIT1 Relative quantity [4]: 4.7 | increased expression of RNR [5]: 3 fold | RNR Relative quantity [5]: 3.2 | infectivity index ([6]; 3.12 μg/mL): 56

O=c1cc(-c2ccc(O)cc2)oc2cc(O)cc(O)c12 [Apigenin, apigenin]
Selectivity Index (CC50/IC50), promastigotes [1]: 10.45 | IC50 [1]: 22.77 ± 0.01 µM | decrease in the number of parasites at the M phase ([2]; versus untreated): 6.8% | increase in G0/G1 cells [2]: 8% | concentration of iron in the spent media [3]: 0.11 mg/L | intracellular iron levels in promastigotes [3]: 0.1 mg/L | LIT1 mRNA expression versus untreated [4]: no observed change | LIT1 Relative quantity [4]: 0.8 | increased expression of RNR [5]: 3 fold | RNR Relative quantity [5]: 2.5 | infectivity values (infectivity index) [6]: 152.2

CC(=O)N(O)CCCCCNC(=O)CCC(=O)N(O)CCCCCNC(=O)CCC(=O)N(O)CCCCCN [Deferoxamine, deferoxamine, reference compound]
Selectivity Index (CC50/IC50), promastigotes [1]: 2.60 | IC50 [1]: 10.35 ± 0.01 µM | decrease in the number of parasites at the M phase ([2]; versus untreated): 7.7% | increase in G0/G1 cells [2]: 7% | concentration of iron in the spent media [3]: 0.08 mg/L | intracellular iron levels in promastigotes [3]: 0.36 mg/L | LIT1 mRNA expression versus untreated [4]: 125 fold | LIT1 Relative quantity [4]: 125 | decrease in the expression of RNR [5]: 80 % reduction | RNR Relative quantity [5]: 0.2 | infectivity values (infectivity index) [6]: 177

O=C(/C=C/c1ccc(O)c(O)c1)O[C@H](Cc1ccc(O)c(O)c1)C(=O)O [Rosmarinic acid, rosmarinic acid]
Selectivity Index (CC50/IC50), promastigotes [1]: 15.03 | IC50 [1]: 16.34 ± 0.1 µM | decrease in the number of parasites at the M phase ([2]; versus untreated): 8.0% | increase in G0/G1 cells [2]: 7.1% | concentration of iron in the spent media [3]: 0.09 mg/L | intracellular iron levels in promastigotes [3]: 0.30 mg/L | LIT1 mRNA expression versus untreated [4]: 3 fold | LIT1 Relative quantity [4]: 3.0 | decrease in the expression of RNR [5]: 90 % reduction | RNR Relative quantity [5]: 0.1 | infectivity values (infectivity index) [6]: 140
